Tested on: E. coli in vitro translation reaction
Assay: PURExpress in vitro transcription/translation of a GFP reporter
Details: read-out: half-maximal inhibition (IC50) of translation of a GFP reporter; PURExpress (NEB) protein synthesis system; DNA encoding eGFP; endpoint fluorescence after 4 hours
Description: The PureExpress kit (NEB) was used in accordance with manufacture's protocol to assay for the in-vitro production of GFP. For each sample a 25 uL reaction was performed containing 100 ng DNA or 500 ng RNA template encoding GFP (transcription in this kit is via T7 RNA Polymerase), plus indicated amounts of purified compound dissolved in H2O. Reactions were loaded into a white 384 well plate and production of fluorescent GFP protein was monitored with a Synergy Ht Plate Reader (Bio-tek). Fluorescence reached an endpoint at 4 hours. To produce DNA template, a PCR product of the pT7-GFP gene was amplified (Kapa HiFi Polymerase) and purified by gel electrophoresis followed by gel purification (Qiagen). To produce RNA template, the DNA PCR product was transcribed with the HiScribe T7 High Yield RNA Synthesis kit (NEB), treated with DNasel, and purified by the Monarch RNA Purification Kit (NEB). RNA was quantified by Qubit.
To quantify IC50 values for translation inhibition activity (FIG. 14A), raw fluorescence values were linearly converted to percent activity. […] Graphpad Prism was used to plot a hyperbolic non-linear regression.

CC[C@H]1OC(=O)[C@H](C)[C@@H](O[C@H]2C[C@@](C)(OC)[C@@H](O)[C@H](C)O2)[C@H](C)[C@@H](O[C@@H]2O[C@H](C)C[C@H](N(C)C)[C@H]2O)[C@](C)(O)C[C@@H](C)C(=O)[C@H](C)[C@@H](O)[C@]1(C)O [erythromycin] showed an IC50 of 2000 nM.
